Experimental data reported in ChEMBL document CHEMBL5532698, “2,3-Dihydroquinazolin-4(1H)-ones and quinazolin-4(3H)-ones as broad-spectrum cytotoxic agents and their impact on tubulin polymerisation” (RSC Med Chem, 2024).

How the values were obtained:
MCF7 [1] = experiment: Antiproliferative activity against human MCF7 cells assessed as cell growth inhibition at 25 uM incubated for 72 hrs by MTT assay relative to control; type: functional
A-431 [2] = experiment: Antiproliferative activity against human A-431 cells assessed as cell growth inhibition incubated for 72 hrs by MTT assay; type: functional
A-431 [3] = experiment: Antiproliferative activity against human A-431 cells assessed as cell growth inhibition at 25 uM incubated for 72 hrs by MTT assay relative to control; type: functional
HT-29 [4] = experiment: Antiproliferative activity against human HT-29 cells assessed as cell growth inhibition at 25 uM incubated for 72 hrs by MTT assay relative to control; type: functional
NCI-H460 [5] = experiment: Antiproliferative activity against human NCI-H460 cells assessed as cell growth inhibition at 25 uM incubated for 72 hrs by MTT assay relative to control; type: functional
U-87 MG [6] = experiment: Antiproliferative activity against human U87 cells assessed as cell growth inhibition at 25 uM incubated for 72 hrs by MTT assay relative to control; type: functional, U-87MG ATCC
A2780 [7] = experiment: Antiproliferative activity against human A2780 cells assessed as cell growth inhibition at 25 uM incubated for 72 hrs by MTT assay relative to control; type: functional
A2780 [8] = experiment: Antiproliferative activity against human A2780 cells assessed as cell growth inhibition incubated for 72 hrs by MTT assay; type: functional
[9] = Antiproliferative activity against human SJG2 cells assessed as cell growth inhibition incubated for 72 hrs by MTT assay; type: functional; details: SJ-G2
DU-145 [10] = experiment: Antiproliferative activity against human DU-145 cells assessed as cell growth inhibition at 25 uM incubated for 72 hrs by MTT assay relative to control; type: functional
MIA PaCa-2 [11] = experiment: Antiproliferative activity against human MIA PaCa-2 cells assessed as cell growth inhibition at 25 uM incubated for 72 hrs by MTT assay relative to control; type: functional
BE(2)-C [12] = experiment: Antiproliferative activity against human BE2C cells assessed as cell growth inhibition incubated for 72 hrs by MTT assay; type: functional
MCF7 [13] = experiment: Antiproliferative activity against human MCF7 cells assessed as cell growth inhibition incubated for 72 hrs by MTT assay; type: functional
MIA PaCa-2 [14] = experiment: Antiproliferative activity against human MIA PaCa-2 cells assessed as cell growth inhibition incubated for 72 hrs by MTT assay; type: functional
[15] = Cytotoxicity against human MCF-10A cells assessed as cell growth inhibition at 25 uM incubated for 72 hrs by MTT assay relative to control; type: toxicity, cell-based
BE(2)-C [16] = experiment: Antiproliferative activity against human BE2C cells assessed as cell growth inhibition at 25 uM incubated for 72 hrs by MTT assay relative to control; type: functional
DU-145 [17] = experiment: Antiproliferative activity against human DU-145 cells assessed as cell growth inhibition incubated for 72 hrs by MTT assay; type: functional
[18] = Antiproliferative activity against human SJG2 cells assessed as cell growth inhibition at 25 uM incubated for 72 hrs by MTT assay relative to control; type: functional; details: SJ-G2
NCI-H460 [19] = experiment: Antiproliferative activity against human NCI-H460 cells assessed as cell growth inhibition incubated for 72 hrs by MTT assay; type: functional
U-87 MG [20] = experiment: Antiproliferative activity against human U87 cells assessed as cell growth inhibition incubated for 72 hrs by MTT assay; type: functional, U-87MG ATCC
HT-29 [21] = experiment: Antiproliferative activity against human HT-29 cells assessed as cell growth inhibition incubated for 72 hrs by MTT assay; type: functional
[22] = Cytotoxicity against human MCF-10A cells assessed as cell growth inhibition incubated for 72 hrs by MTT assay; type: toxicity, cell-based

GI50 (A-431 [2]) | GI50 (A2780 [8]) | GI50 (MCF7 [13]) | GI50 (MIA PaCa-2 [14]) | GI50 (DU-145 [17]) | GI50 (NCI-H460 [19]) | GI50 (U-87 MG [20]) | Structure (SMILES) | inhibition at 25 µM (MCF7 [1]) | inhibition at 25 µM (A-431 [3]) | inhibition at 25 µM (HT-29 [4]) | inhibition at 25 µM (NCI-H460 [5]) | inhibition at 25 µM (U-87 MG [6]) | inhibition at 25 µM (A2780 [7]) | GI50 [9] | inhibition at 25 µM (DU-145 [10]) | inhibition at 25 µM (MIA PaCa-2 [11]) | GI50 (BE(2)-C [12]) | inhibition at 72 h, 25 µM [15] | inhibition at 25 µM (BE(2)-C [16]) | inhibition at 25 µM [18] | also measured
5.8 µM | 3.9 µM | 3.8 µM | 8.8 µM | 4.5 µM | 5.7 µM | 10 µM | O=c1[nH]c(-c2ccc(Br)cc2)nc2ccccc12 | 99% | 88% | 91% | 68% | 91% | 83% | 4.3 µM | 98% | 71% | 6.4 µM | 91% | 77% | 66% | GI50 (HT-29 [21]): 5.2 µM; GI50 at 72 h [22]: 5.4 µM
2.3 µM | 2.5 µM | 3.7 µM | 4.2 µM | 4.3 µM | 3.6 µM | 10 µM | O=C1NC(c2ccccc2Br)Nc2ccccc21 (configuration not stated) | 82% | > 100% | > 100% | 95% | 80% | 96% | 3 µM | 100% | 89% | 2.5 µM | 94% | > 100% | > 100% | GI50 (HT-29 [21]): 2.4 µM; GI50 at 72 h [22]: 4.3 µM
3.8 µM | 3.9 µM | 15 µM | 12 µM | 19 µM | 11 µM | 17 µM | O=C1NC(C2CC=CCC2)Nc2ccccc21 (configuration not stated) | 72% | > 100% | > 100% | 91% | 67% | 99% | 17 µM | 67% | 82% | 5.7 µM | 89% | 97% | 87% | GI50 (HT-29 [21]): 5.4 µM; GI50 at 72 h [22]: 11 µM
2.7 µM | 2.6 µM | 2 µM | 3.2 µM | 2.9 µM | 1.9 µM | 4.1 µM | O=C1NC(c2cccc(Br)c2)Nc2ccccc21 (configuration not stated) | 104% | > 100% | > 100% | 101% | 98% | 99% | 1.9 µM | > 100% | 90% | 2.4 µM | 99% | > 100% | > 100% | GI50 (HT-29 [21]): 2.6 µM; GI50 at 72 h [22]: 3.9 µM
2.4 µM | 3.8 µM | 1.6 µM | 2.3 µM | 2.3 µM | 2.8 µM | 2.2 µM | O=C1NC(c2ccc(-c3ccccc3)cc2)Nc2ccccc21 (configuration not stated) | > 100% | > 100% | > 100% | > 100% | > 100% | > 100% | 2.6 µM | > 100% | > 100% | 2 µM | 98% | 92% | > 100% | GI50 (HT-29 [21]): 2.3 µM; GI50 at 72 h [22]: 2.3 µM
3 µM | 3.1 µM | 1.3 µM | 2.9 µM | 1.9 µM | 2.6 µM | 8.9 µM | O=c1[nH]c(/C=C/c2cccc(O)c2)nc2ccccc12 | > 100% | > 100% | > 100% | > 100% | 73% | > 100% | 2.5 µM | > 100% | > 100% | 1.8 µM | 97% | > 100% | > 100% | GI50 (HT-29 [21]): 5.9 µM; GI50 at 72 h [22]: 3.1 µM
17 µM | 11 µM | 3.8 µM | 7.5 µM | 26 µM | 14 µM | > 50 µM | O=C1NC(c2ccc([N+](=O)[O-])cc2)Nc2ccccc21 (configuration not stated) | > 100% | 57% | 70% | 61% | 22% | 65% | 10 µM | 50% | 52% | 10 µM | 58% | 53% | 56% | GI50 (HT-29 [21]): 8.7 µM; GI50 at 72 h [22]: 11 µM
4 µM | 3.7 µM | 1.2 µM | 3.3 µM | 7.7 µM | 9.4 µM | 19 µM | Cc1ccc(/C=C/c2nc(O)c3ccccc3n2)cc1 | > 100% | 93% | > 100% | 69% | 51% | 97% | 13 µM | 61% | 85% | 3.6 µM | 86% | 82% | 57% | GI50 (HT-29 [21]): 2.1 µM; GI50 at 72 h [22]: 3.8 µM
2.7 µM | 2.9 µM | 5.6 µM | 4.4 µM | 3 µM | 3.2 µM | 3.2 µM | O=C1NC(c2cccc(C(F)(F)F)c2)Nc2ccccc21 (configuration not stated) | 83% | > 100% | > 100% | 100% | > 100% | 100% | 3.3 µM | > 100% | 95% | 3.1 µM | > 100% | > 100% | > 100% | GI50 (HT-29 [21]): 2.9 µM; GI50 at 72 h [22]: 3.1 µM
20 µM | 18 µM | 6.7 µM | 20 µM | 45 µM | 24 µM | > 50 µM | O=C1NC(c2cccc([N+](=O)[O-])c2)Nc2ccccc21 (configuration not stated) | > 100% | 67% | 78% | 59% | 20% | 69% | 22 µM | 33% | 56% | 19 µM | 54% | 58% | 61% | GI50 (HT-29 [21]): 17 µM; GI50 at 72 h [22]: 21 µM
3.2 µM | 3.2 µM | 12 µM | 8.8 µM | 10 µM | 10 µM | 16 µM | O=C1NC(c2ccc(O)cc2)Nc2ccccc21 (configuration not stated) | 55% | 108% | > 100% | 88% | 72% | 95% | 8.9 µM | 90% | 84% | 4.1 µM | 91% | 100% | > 100% | GI50 (HT-29 [21]): 3.7 µM; GI50 at 72 h [22]: 9.9 µM
